A word on the IC50: it is the point on the concentration scale where inhibition reaches its midpoint.

The test system of this test is Mycobacterium tuberculosis. Kind of test: Antituberculosis activity against multidrug-resistant Mycobacterium tuberculosis. The class given is functional, organism-based.

In the case of `C[C@H](C/C=C\C(C)(C)OO)[C@H]1CC[C@@]2(C)[C@@H]3CC[C@H]4C(C)(C)[C@@H](O)CC[C@@]45C[C@@]35CC[C@]12C`, the 50% inhibitory concentration (IC50) was 27.3 µM.

Source of the values: ChEMBL document CHEMBL1152311, “A multipronged approach to the study of peruvian ethnomedicinal plants: a legacy of the ICBG-Peru Project” (J Nat Prod, 2009).
